Test systems include UACC-62; COLO 205; LOX IMVI; SK-OV-3; SF-539; OVCAR-5; SNB-19; HOP-62; A498; SNB-75; SW-620; MDA-MB-231; RXF 393; EKVX; A549; SF-268; NCI-H226; NCI-H23; OVCAR-8; UO-31.
Common to all, as to experiment: DTP human tumour cell line panel, 48 h

This is an account of results in ChEMBL document CHEMBL1201862, “PubChem BioAssay data set” (2004).

By GI50 is commonly meant the concentration at which growth is held to half of that of the control.

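In this assay, cells in 96-well plates receive the compound at five concentrations for 48 hours. Endpoints are linearly interpolated between the surrounding concentrations. GI50: concentration for 50% inhibition of growth.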 The source made the active and inactive calls. Rule as the data show it: active = GI50 up to about 1.1 µM and inactive = higher. A value given as a limit tells only on which side of the number the result lay.

On to `COC(=O)/C(C#N)=C(\N)c1c(C)c2ccccc2oc1=N`, for which the GI50 in the assay with UACC-62, in the assay with COLO 205, in the assay with LOX IMVI, with SK-OV-3, with SF-539 and with OVCAR-5 was > 100 µM (inactive) throughout. For the same compound, the GI50 in the assay with SNB-19 is > 100 µM (inactive); in the assay with HOP-62 it was > 100 µM (inactive); with A498 it was > 100 µM (inactive); in the assay on SNB-75 it was > 100 µM (inactive); in the assay on SW-620, > 100 µM (inactive); in the assay on MDA-MB-231, 86.7 µM (inactive). Further, the GI50 with RXF 393, in the assay on EKVX and in the assay on A549 was > 100 µM (inactive) throughout.
As for `O=C1/C(=C/c2ccc(Cl)cc2)Sc2scc(-c3cccc([N+](=O)[O-])c3)[n+]21`, the GI50 in the assay on SF-268 was 2.95 µM (inactive); in the assay with UACC-62, 3.16 µM (inactive); with COLO 205, 1.86 µM (inactive); in the assay with LOX IMVI it was 3.01 µM (inactive); in the assay on SK-OV-3, 10.5 µM (inactive); with SF-539, 2.3 µM (inactive). Further, the GI50 in the assay on OVCAR-5 is 10.8 µM (inactive); in the assay with NCI-H226, 29.8 µM (inactive); in the assay on SNB-19, 15.6 µM (inactive); with HOP-62 it was 19.5 µM (inactive); in the assay with SNB-75, 0.971 µM (active); with NCI-H23 it was 4.95 µM (inactive). In addition, the GI50 is 7.55 µM (inactive) in the assay with OVCAR-8; 1.76 µM (inactive) in the assay with SW-620; 5.22 µM (inactive) in the assay on MDA-MB-231; 2.42 µM (inactive) in the assay with RXF 393; 4.18 µM (inactive) in the assay with EKVX; 13.6 µM (inactive) in the assay with A549. Also, the GI50 in the assay with UO-31 is 4.43 µM (inactive).
With `Cc1cc2c(cc1C)[n+]([O-])c(C(=O)N1CCN(c3ccc([N+](=O)[O-])cc3)CC1)c(C)[n+]2[O-]`, the GI50 was 19 µM (inactive) in the assay on SF-268; 41.9 µM (inactive) in the assay with UACC-62; > 100 µM (inactive) with COLO 205; 90.2 µM (inactive) in the assay with LOX IMVI; 18.2 µM (inactive) in the assay on SK-OV-3; 17.7 µM (inactive) in the assay on SF-539. Besides, the GI50 in the assay with OVCAR-5 was 62.8 µM (inactive); with SNB-19, 64.9 µM (inactive); with HOP-62 it was 12.8 µM (inactive); in the assay with A498, 27.2 µM (inactive); with NCI-H23 it was 26.5 µM (inactive); with OVCAR-8 it was 27.5 µM (inactive). The GI50 is > 100 µM (inactive) in the assay with SW-620; 21.8 µM (inactive) with MDA-MB-231; 14.4 µM (inactive) in the assay on RXF 393; 24.4 µM (inactive) with EKVX; 82.2 µM (inactive) in the assay with A549; 28.5 µM (inactive) in the assay on UO-31.
For the compound `CC(C)(C)OC(=O)N1CCC(NC(=O)NC2CCN(C(=O)OC(C)(C)C)CC2)CC1`, the GI50 in the assay with SF-268, in the assay on UACC-62, in the assay on LOX IMVI, in the assay on SF-539, in the assay on OVCAR-5 and with SNB-19 was > 100 µM (inactive) each time. Further, the GI50 in the assay on HOP-62, in the assay on A498, with SNB-75, with NCI-H23, in the assay on OVCAR-8 and with SW-620 was > 100 µM (inactive) in each case. Also, the GI50 in the assay with MDA-MB-231, in the assay with EKVX, in the assay on A549 and in the assay on UO-31 was > 100 µM (inactive) throughout.
Consider `CC1(C)CCSC(/C=C/c2ccccc2)=N1`, for which the GI50 in the assay with SF-268 is 30.8 µM (inactive); with LOX IMVI, 13.7 µM (inactive); in the assay with SK-OV-3, 43.9 µM (inactive); with SF-539 it was 19.8 µM (inactive); in the assay on OVCAR-5 it was 20.2 µM (inactive); in the assay with SNB-19, 20.1 µM (inactive). Besides, the GI50 with HOP-62 was 16.4 µM (inactive); with A498 it was 20.1 µM (inactive); with NCI-H23, 17.8 µM (inactive); in the assay with OVCAR-8, 15.5 µM (inactive); in the assay with SW-620 it was 19.1 µM (inactive); with MDA-MB-231 it was 15.7 µM (inactive). Moreover, the GI50 was 21.6 µM (inactive) in the assay with RXF 393, 31.6 µM (inactive) with EKVX and 25.2 µM (inactive) in the assay on A549.
